Data on one molecule can be found in patent US20150367034A1, “CREATION OF THREE-DIMENSIONAL SYNTHETIC TISSUE FROM PLURIPOTENT STEM CELL-DERIVED CELLS, AND OSTEOCHONDRAL REGENERATION TREATMENT USING SAID SYNTHETIC TISSUE” (OSAKA UNIVERSITY, priority 2013, published 2015).

The test system of one assay is Synovial cells. Nature of the assay: Extracellular matrix formation and collagen content (hydroxyproline) of synovial cell synthetic tissue. The format is cell-based. The following applies: pig synovial cells. As to the method:
Synovial cells were collected from a knee joint of a pig (LWD ternary hybrid, 2-3 months old upon removal of cells), followed by treatment with collagenase. The cells were cultured and subcultured in a 10% fetal bovine serum+High Glucose-DMEM medium (fetal bovine serum available from HyClone, DMEM was obtained from GIBCO). It has been reported that 10th passage synovial cells still have pluripotency. Although cells of 10 or less passages were used in this production example, it is understood that cells of more than 10 passages may be used depending on the application. Autotransplantation was performed for actual human implantation, but it was necessary to secure a sufficient number of cells and to culture the cells for a short period of time so as to reduce the risk of infection or the like. Synovial cells (4.0×10^5) were cultured in 0.1-0.2 ml/cm^2 of 10% FBS-DMEM medium in a 35-mm dish, 60-mm dish, 100-mm dish, 150-mm dish, 500-m dish, 6-well culture dish, 12-well culture dish, or 24-well culture dish (BD Biosciences, cell culture dish and multiwell cell culture plate). In this case, ascorbic acid was added. […] In order to determine the collagen concentration, the collagen content was measured. […]

A further assay concerns ES-MSCs. The assay is described as follows: Volume, weight and hydroxyproline of TEC from ES-MSCs with or without ascorbic acid 2-phosphate. In kind it is cell-based, rabbit. The following applies: 0.2 mM added versus non-added; FIG. 3. The protocol:
The protocol thereof is disclosed below.
ES-MSCs were inoculated at a TEC creation concentration (1.52×10^5 cells/well) in each well of a 12 well plate to create a TEC. A medium was created by separating conventional 10% FBS-containing DMEM for TEC creation into a 0.2 mM ascorbic acid added group (n=6) and non-added group (n=6). Three of each group were used for weight/volume measurements and the rest of the three were used in hydroxyproline measurements. For hydroxyproline, the following kit was used (Hydroxyproline Assay Kit Cat#K555-100; Lot#60855, BioVision), where the measurements were taken in accordance with the protocol on the package insert.
For the TEC made from 0.125×10^6, 0.25×10^6, 0.5×10^6, 1×10^6, 2×10^6, 4×10^6, 8×10^6, or 16×10^6 cells/well in a 6 well plate which was cultured over 12 days, detached, and allowed to undergo self-contraction, the volume was measured with a plethysmometer (model TK-101CMP; UNICOM, Chiba, Japan), and the weight was measured with a scale (Ando W, Tateishi K, Katakai D, Hart D A, Higuchi C, Nakata K, et al., Tissue Eng Part A 2008:14:2041-2049). 4 samples were evaluated at each cell density. In short, a plethysmometer is a minute volume controlled measuring device that is specially designed for accurate measurement. A plethysmometer consists of Perspex cells filled with water. A transducer records a small difference in the water level caused by a change in volume. […] The weight was measured with a common scale (METTLER TOLEDO AG204, Mettler-Toledo International Inc., Max210gd=0.1 mg, METTLER TOLEDO AG204 (Mettler-Toledo International Inc.)) in a laboratory […]. Measurements were taken in accordance with the protocol on the package insert.

Consider `O=C1O[C@H]([C@@H](O)CO)C(O)=C1OP(=O)(O)O` [ascorbic acid 2-phosphate], for which the “production of collagen (amount of hydroxyproline)” value in the assay with Synovial cells (0.1 mM or more added) was “significantly promoted”. The “formation of an extracellular matrix” value in the assay on Synovial cells (added at a concentration of 0.1 mM or more) is on record as “promoted”. Moreover, in the assay on ES-MSCs, the “hydroxyproline generation amount of TEC” value is “significantly increased”, the “volume of TEC” value is “significantly increased” and the “weight of TEC” value is recorded as “significantly increased”.
